The values below come from BindingDB's records for doi:10.1016/j.bmcl.2015.12.052 (Janssen Research and Development, 2016).

The target of this assay is T1, P2X purinoceptor 7 (Rattus norvegicus, UniProt Q64663).
T1 sequence (Q64663 whole entry): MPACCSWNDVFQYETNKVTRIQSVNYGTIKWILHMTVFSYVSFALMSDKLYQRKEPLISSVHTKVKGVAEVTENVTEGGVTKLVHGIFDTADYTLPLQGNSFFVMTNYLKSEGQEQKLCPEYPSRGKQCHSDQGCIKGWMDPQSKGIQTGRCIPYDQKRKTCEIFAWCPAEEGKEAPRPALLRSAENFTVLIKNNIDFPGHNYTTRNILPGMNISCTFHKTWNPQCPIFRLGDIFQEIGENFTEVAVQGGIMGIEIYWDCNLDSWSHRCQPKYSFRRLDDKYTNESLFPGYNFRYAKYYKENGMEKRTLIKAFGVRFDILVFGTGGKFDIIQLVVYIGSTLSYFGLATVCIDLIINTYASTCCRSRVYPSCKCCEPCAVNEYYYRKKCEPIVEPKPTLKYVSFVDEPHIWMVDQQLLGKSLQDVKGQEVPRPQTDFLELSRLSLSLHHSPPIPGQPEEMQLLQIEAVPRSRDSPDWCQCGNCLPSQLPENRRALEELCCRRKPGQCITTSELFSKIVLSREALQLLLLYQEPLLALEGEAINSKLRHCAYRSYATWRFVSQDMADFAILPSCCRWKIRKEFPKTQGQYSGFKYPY
The experiment in a line: Antagonist activity at rat P2X7 receptor expressed in 1321N1 cells assessed as inhibition of Bz-ATP-induced Ca2+ flux after 30 mins by FLIPR assay. Background: Calcium flux is commonly read through the fluorescence of an indicator in the cells.

Consider `C[C@H]1Cn2c(nnc2-c2cnccn2)C(=O)N1Cc1ccccc1` [US10047092, 79], for which the IC50 is greater than 10 µM.

For orientation: IC50 means the concentration that gives 50% inhibition.
